Source: patent publication US9981956B2, “Small molecule inhibitors of fibrosis” (THE CALIFORNIA INSTITUTE FOR BIOMEDICAL RESEARCH, priority 2013, dated 2018)

Columns and labels:
[1] = target: Cyp3A4 (Homo sapiens, UniProt P08684); experiment: Cyp reversible inhibition assay (human liver microsomes)
Description: The purpose of this assay was to determine reversible inhibition of Cyp enzyme with a given compound using a substrate probe turnover as the surrogate for inhibition. This was done with human liver microsomes rather an isolated enzyme to account for metabolites of parent drug leading to a potential drug-drug interaction through Cyp inhibition. The substrate turnover (for example conversion of midazolam to hydroxyl midazolam) was monitored by LCMSMS (Q1/Q2=342.2/203.2). Test compounds were tested in a 7-point dose response curve starting from 50 μM to 50 nM (˜3-fold dilution series).
The detailed protocol was as follows: • Prepared test compounds and standard inhibitors working solution (100×) • Pulled microsomes out of the −80° C. freezer to thaw on ice, labeled with the date and put back to freezer immediately after using. • Added 20 μL of the substrate solutions to corresponding wells. • Added 20 μL PB to Blank wells. • Added 2 μL of the test compounds and positive control working solution to corresponding wells. • Added 2 μL MeOH to No Inhibitor wells and Blank wells. • Prepared HLM working solution. • Added 158 μL of the HLM working solution to all wells of incubation plate. • Pre-warmed the plate for about 10 min at 37° C. water bath. • Prepared NADPH cofactor solution. • Added 20 μL NADPH cofactor to all incubation wells. • Mixed and incubated for 10 minutes at 37° C. water bath. • At the time point, terminated the reaction by adding 400 μL cold stop solution (200 ng/mL Tolbutamide in ACN). • Centrifuged the samples at 4000 rpm for 20 minutes to precipitate protein. • Transferred 200 μL supernatant to 200 μL HPLC water and shook for 10 min. • Analyzed samples by LC/MS/MS.

[2] = system: fibroblast to myofibroblast transdifferentiation (primary human lung fibroblasts and primary rodent HSCs); experiment: High content imaging and western based assay of fibroblast to myofibroblast transdifferentiation (α-SMA); assay type: cell-based; settings: graded, TGF-β induced fibroblast to myofibroblast transdifferentiation
From the text: A high content imaging assay, based on α-SMA staining and cell morphological changes associated with fibroblast to myofibroblast transdifferentiation, was established using primary human lung fibroblasts and primary rodent HSCs. Conditions, involving serum starvation and subsequent TGF-β treatment, were identified that facilitate robust in vitro transdifferentiation in a miniaturized (384 well plate) format that is amenable to high throughput small molecule screening. A selective ALK-5 TGF-β1 receptor inhibitor (SB-431542) was used as a positive control. […] This assay was used to identify a hit compound (itraconazole) and was used to evaluate focused panels of itraconazole analogues generated from medicinal chemistry efforts.
The activity of Itraconazole and its analogues was confirmed by analyzing changes in gene expression of multiple genes associated with fibroblast to myofibroblast transdifferentiation using biochemical methods (i.e., Western blot and RT-PCR). These 4-day assays were used to evaluate sets of 6 compounds at a time in 4-point dose response fashion.
After 24 hour incubation, cells were treated with the indicated doses of itraconazole for 48 hours in the presence of 10 ng/mL of TGF-β1 in hepatic stellate medium. Following fixation and staining with an anti smooth muscle actin antibody, cell morphology was analyzed with a Cellomics cell insight imaging reader (FIG. 1 for representative images). Cells were analyzed for mean cellular area of a-SMA staining (FIG. 5a) or mean fluorescence intensity of SMA staining (FIG. 5b).
After 24 incubation, medium was changed to assay medium containing TGF-β1 (10 ng/mL) and simultaneously treated with itraconazole (10 μM), SB431542 (10 μM) or vehicle control (FIG. 6).

[3] = Cyp 3A4 testosterone LCMS IC50, human liver microsomes, substrate testosterone

Sequence of Cyp3A4 (P08684 whole entry): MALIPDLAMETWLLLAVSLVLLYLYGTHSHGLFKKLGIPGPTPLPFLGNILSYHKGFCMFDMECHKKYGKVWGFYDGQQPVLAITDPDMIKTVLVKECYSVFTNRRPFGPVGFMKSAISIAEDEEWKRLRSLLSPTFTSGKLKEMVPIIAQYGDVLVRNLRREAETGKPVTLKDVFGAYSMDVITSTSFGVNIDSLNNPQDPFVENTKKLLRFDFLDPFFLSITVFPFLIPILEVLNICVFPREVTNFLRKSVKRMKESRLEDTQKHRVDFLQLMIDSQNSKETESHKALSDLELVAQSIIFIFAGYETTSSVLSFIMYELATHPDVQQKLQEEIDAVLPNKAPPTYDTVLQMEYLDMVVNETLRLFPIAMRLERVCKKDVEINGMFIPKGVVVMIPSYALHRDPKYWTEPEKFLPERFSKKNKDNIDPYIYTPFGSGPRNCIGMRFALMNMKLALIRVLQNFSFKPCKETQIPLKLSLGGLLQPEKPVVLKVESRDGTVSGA

| IC50 [1, 3] | IC50 ([1]; Cyp 3A4 midazolam LCMS IC50, human liver microsomes, substrate midazolam) | SMILES | EC50 [2] |
| --- | --- | --- | --- |
| 4.5 µM | – | CCC(C)n1cnn(-c2ccc(N3CCN(c4ccc(OC[C@@H]5CO[C@@](Cn6cncn6)(c6ccc(F)cc6F)O5)cc4)CC3)cc2)c1=O (mixture of isomers) [Compound 1] | 0.5 to 5 µM |
| > 30 µM | – | CCC(C)n1cnn(-c2ccc(N3CCN(c4ccc(OC[C@@H]5CO[C@@](Cn6ccnn6)(c6ccc(F)cc6F)O5)cc4)CC3)cc2)c1=O (some centres unmarked) [Compound 2] | 0.5 to 5 µM |
| > 30 µM | – | CCC(C)n1ncn(-c2ccc(N3CCN(c4ccc(OC[C@@H]5CO[C@@](Cn6nccn6)(c6ccc(Cl)cc6Cl)O5)cc4)CC3)nc2)c1=O (some centres unmarked) [Compound 24] | 0.5 to 5 µM |
| – | – | CCC(C)n1ncn(-c2ccc(N3CCN(c4ccc(OC[C@@H]5CO[C@@](Cn6nccn6)(c6cnccn6)O5)cc4)CC3)cc2)c1=O (some centres unmarked) [Compound 57] | 5 to 30 µM |
| – | – | CCC(C)n1ncn(-c2ccc(N3CCN(c4ccc(OC[C@@H]5CO[C@@](Cn6nccn6)(C6CCCCC6)O5)cc4)CC3)cc2)c1=O (some centres unmarked) [Compound 58] | 5 to 30 µM |
| – | – | CCC(C)n1ncn(-c2ccc(N3CCN(c4ccc(OC[C@@H]5CO[C@@](Cn6nccn6)(c6cccc7ccccc67)O5)cc4)CC3)cc2)c1=O (some centres unmarked) [Compound 63] | 5 to 30 µM |
| – | – | CCC(C)n1ncn(-c2ccc(N3CCN(c4ccc(OC[C@@H]5CO[C@@](Cn6nccn6)(c6ccc(-c7ccccc7)cc6)O5)cc4)CC3)cc2)c1=O (some centres unmarked) [Compound 72] | 5 to 30 µM |
| > 50 µM | > 50 µM | CCC(C)n1ncn(-c2ccc(N3CCN(c4ccc(OC[C@@H]5CO[C@@](Cn6nccn6)(c6ccccc6C#N)O5)cc4)CC3)cc2)c1=O (some centres unmarked) [Compound 74] | 0.5 to 5 µM |
| – | – | CCC(C)n1ncn(-c2ccc(N3CCN(c4ccc(OC[C@@H]5CO[C@@](Cn6nccn6)(c6ccccn6)O5)cc4)CC3)cc2)c1=O (some centres unmarked) [Compound 75] | 5 to 30 µM |
| – | – | CCC(C)n1ncn(-c2ccc(N3CCN(c4ccc(OC[C@@H]5CO[C@@](Cn6nccn6)(c6nccs6)O5)cc4)CC3)cc2)c1=O (some centres unmarked) [Compound 78] | 5 to 30 µM |
| – | – | CCc1cc(N2CCN(c3ccc(-n4cnn(C(C)CC)c4=O)cc3)CC2)ccc1OC[C@@H]1CO[C@@](Cn2nccn2)(c2ccc(Cl)cc2Cl)O1 (some centres unmarked) [Compound 80] | 5 to 30 µM |
| – | – | CCc1cc(OC[C@@H]2CO[C@@](Cn3nccn3)(c3ccc(Cl)cc3Cl)O2)ccc1N1CCN(c2ccc(-n3cnn(C(C)CC)c3=O)cc2)CC1 (some centres unmarked) [Compound 81] | 5 to 30 µM |
| – | – | CCC(C)n1ncn(-c2ccc(N3CCN(c4ccc(OC[C@@H]5CO[C@@](Cn6nccn6)(c6cccnc6)O5)cc4)CC3)cc2)c1=O (some centres unmarked) [Compound 82] | 5 to 30 µM |
| – | – | CCC(C)n1ncn(-c2ccc(N3CCN(c4ccc(OC[C@@H]5CO[C@@](Cn6nccn6)(c6ccncc6)O5)cc4)CC3)cc2)c1=O (some centres unmarked) [Compound 83] | 5 to 30 µM |
| – | – | CCC(C)n1ncn(-c2ccc(N3CCN(c4ccc(OC[C@@H]5CO[C@@](Cn6nccn6)(C6CCC6)O5)cc4)CC3)cc2)c1=O (some centres unmarked) [Compound 88] | 0.5 to 5 µM |
| – | – | CCC(C)n1ncn(-c2ccc(N3CCN(c4ccc(OC[C@@H]5CO[C@@](Cn6nccn6)(C(C)C)O5)cc4)CC3)cc2)c1=O (some centres unmarked) [Compound 90] | 5 to 30 µM |
| – | – | CCC(C)n1ncn(-c2ccc(N3CCN(c4ccc(OC[C@@H]5CO[C@@](Cn6nccn6)(C6CCOCC6)O5)cc4)CC3)cc2)c1=O (some centres unmarked) [Compound 92] | 5 to 30 µM |
| – | – | CCC(C)n1ncn(-c2ccc(N3CCN(c4ccc(OC[C@@H]5CO[C@@](Cn6nccn6)(C6CCNCC6)O5)cc4)CC3)cc2)c1=O (some centres unmarked) [Compound 93] | 5 to 30 µM |
